Results from patent publication US20130183696A1, “METHODS OF USE AND KIT FOR MEASUREMENT OF LIPOPOLYSACCHARIDE WITH A TIME RESOLVED FLUORESCENCE BASED ASSAY” (priority 2010, published 2013).

How the values were obtained:
[1] = cited from earlier work
[2] = biological target: T1, recombinant rat A1 adenosine receptor (Rattus norvegicus, UniProt P25099); test: A1 adenosine receptor TRF Eu-GTP binding assay, standard curve for LPS; assay type: biochemical; settings: CHO cell membranes, Eu-GTP 10 nM, % basal activity; mean of 8-10 independent assays, LPS 10 pg/mL-100 ng/mL
T1 construct: purchased PerkinElmer, Waltham, Mass; host or cells: CHO cells (membranes)
T1 sequence (P25099 1-326): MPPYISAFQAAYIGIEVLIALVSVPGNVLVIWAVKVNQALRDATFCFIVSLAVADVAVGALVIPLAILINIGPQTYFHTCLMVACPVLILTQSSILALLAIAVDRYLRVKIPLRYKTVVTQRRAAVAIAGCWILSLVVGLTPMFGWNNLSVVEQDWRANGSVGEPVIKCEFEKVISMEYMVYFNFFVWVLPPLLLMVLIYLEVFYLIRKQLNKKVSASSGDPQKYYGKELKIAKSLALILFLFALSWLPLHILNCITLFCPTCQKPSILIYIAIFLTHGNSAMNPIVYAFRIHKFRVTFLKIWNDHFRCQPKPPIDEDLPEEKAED
Description: To generate a standard LPS/endotoxin standard curve membranes prepared from CHO cells (1 unit/well corresponding to approximately 20 μg of protein per well; PerkinElmer, Waltham, Mass.) expressing the recombinant rat A1 adenosine receptor are preincubated in an Acrowell filter plate (Pall Life Sciences, Ann Arbor, Mich.) in the presence of LPS/endotoxin (USP, Rockville, Md.) (0.01-750 ng/mL). The endotoxin stock solution is prepared by dissolving 10,000 endotoxin units (corresponding to 1000 ng) in 333 μL of endotoxin free water. […] Each assay point is evaluated in triplicate. […] Fluorescence in each well is determined with an Infinite F-200 PRO (Tecan, Grodig, Austria) using fluorescent top read with an excitation wavelength of 320 nm, emission wavelength of 620 nm, and gain setting of 109. Eu-GTP basal activity is calculated as the difference between total Eu-GTP bound and nonspecific Eu-GTP bound. Percent (%) basal is calculated as follows: [(test condition−nonspecific)/(basal activity)]*100. […] The standard curve is analyzed by nonlinear regression (GraphPad Prism, version 5, GraphPad Software, La Jolla, Calif.) using a sigmoidal dose-response curve with variable slope to determine EC50. Each standard curve represents a minimum of three independent experiments and final data are expressed as the mean±SEM. […]

drotrecogin alfa [Xigris, drotrecogin alfa [activated]]
adverse side effect ([1]; in vivo): serious adverse side effect of bleeding | reduction of absolute mortality compared to placebo ([1]; sepsis patients, definitive large clinical trials (Bernard et al., 2001)): 6%

lipopolysaccharide [LPS]
sensitivity of the assay for LPS [2]: 10 pg/mL
